Reference: patent US20020025940A1, “Methods and compositions for sensitive and rapid, functional identification of genomic polynucleotides and use for cellular assays in drug discovery” (Aurora Biosciences Corporation, priority 1997, published 2002)

How the values were obtained:
BLEC Jurkat clones = assay: Specificity of activated BLEC Jurkat clones, relative beta-lactamase activity; assay type: cell-based, human; conditions: PMA 8 nM, Thaps 1 microM, CsA 100 nM, PHA 10 microgram/ml
Excerpt: (§1) Isolated clones from PHA-induced (Example 6) and PHA-repressed (Example 7) procedures described above were characterized to determine the specificity of their modulation and time required for induction or repression. Clones were stimulated with multiple activators or inhibitors over a one to twenty-four hour time interval.
(§2) In this study, PMA, which is a PKC activator, Thapsigargin which increases intracellular calcium, PHA which activates the T-cell receptor pathway, and cyclosporin A which is a clinically approved immunosuppressant that inhibits the Ca^2+ dependent phosphates calcineurin were investigated for their ability to modulate beta-lactamase expression in PHA induced and repressed BLEC clones.

[1] = test system: clone C2 (3×NFAT response element linked to beta-lactamase, M1 muscurinic receptor); assay: Relative beta-lactamase activity of control clone C2; assay type: cell-based, human; conditions: PMA 8 nM, Thaps 1 microM, CsA 100 nM, PHA 10 microgram/ml
Excerpt: as §1, §2

[2] = test system: induced BLEC Jurkat clones; assay: Characterization of induced BLEC Jurkat clones, change in 460/530 ratio; assay type: cell-based, human; conditions: PHA 10 microgram/ml, Thaps 1 microM, PMA 8 nM, Anti-CD3 2 microgram/ml
Excerpt: These clones represent cells in which the trapping construct had integrated into a gene up regulated by PHA (T-cell) activation. Thus, these cells report the transcriptional activation of a gene upon cellular activation. Individual clones were identified and isolated by FACS using CCF2/AM to detect beta-lactamase activity. This clone isolation method, the induced sorting paradigm, used three sequential and independent stimulation and sorting protocols. […] These control cells were all green.
These isolated clones were expanded and tested for PHA inducibility by microscopic inspection with and without PHA stimulation in the presence of CCF2/AM. A total of fifty-five PHA inducible clones were identified using this procedure. The PHA inducibility for these clones ranged from a 1.5 to 40 fold change in the 460/530 ratio as compared to unstimulated control cells. Genomic Southern analysis using a DNA probe encoding beta-lactamase established that these clones represented 34 independent stable vector integration events. A list of clones obtained by the methods of the present invention and their characteristics is provided below in Table 6 and Table 7.
In addition to PHA inducible clones, Phobol 12-myristate 13-acetate (PMA) (Calbiochem), Thapsigargin (Thaps) (Calbiochem), and PMA+Thaps inducible clones were isolated using the general procedure set forth above using the indicated inducer rather than PHA. PMA is a specific activator of PKC (protein kinase C) and Thaps is a specific activator of intracellular calcium ion release (Thaps). These clones were isolated using three rounds of FACS using the general procedures described for the PHA inducible clones in Example 5. In such instances, other stimulants were substituted for PHA. PMA was provided at 8 nM, Thaps was provided at 1 microM. When these two stimulants were combined, their concentration was not changed. […] By using varied selection conditions, it is possible to isolate functionally distinct clones downstream of the desired signaling target.
Table 7 and Table 8 provide data similar to that provided in Table 5 for all of the clones obtained by the methods of Examples 5 to 7.

J389PT14/pcDNA3 = assay: Beta-lactamase expression in control cell line J389PTI4/pcDNA3; assay type: cell-based, human; conditions: 30 μM Carbachol, 10 nM PHA, 6 hours, unstimulated = 1
Description: (§3) For example, a calcium-sensitive clone was transfected with a Gq-type GPCR by electroporation. Cells from clone J389PT14 were transfected by electroporation with a plasmid (pcDNA3 (Invitrogen) or pcDNA3-M1 (pcDNA3 that can operably express M1 receptor) to make cell lines J389PTI4/pcDNA3 and J389PTI4/pcDNA3-Ml). […] Thus, the J389PTI4/pcDNA3 cell is a control cell. […] These cells were contacted with CCF-2 dye for another 90 minutes. The 460/530 ratio changes were measured in a Cytoflour (Series 4000 Model) (Perceptive Biosystems) fluorescence plate reader and correspond to reporter gene expression.

M1 receptor = molecular target: T1, M1 receptor (Homo sapiens, UniProt P11229); assay type: cell-based; conditions: cell line J389PT14/pcDNA3-M1; 30 μM Carbachol, 10 nM PHA; 6 hours; unstimulated = 1
T1 construct: expressed in transfected cells; host or cells: Jurkat-derived BLEC clone J389PT14, transiently transfected by electroporation with pcDNA3-M1
T1 sequence (P11229 whole entry): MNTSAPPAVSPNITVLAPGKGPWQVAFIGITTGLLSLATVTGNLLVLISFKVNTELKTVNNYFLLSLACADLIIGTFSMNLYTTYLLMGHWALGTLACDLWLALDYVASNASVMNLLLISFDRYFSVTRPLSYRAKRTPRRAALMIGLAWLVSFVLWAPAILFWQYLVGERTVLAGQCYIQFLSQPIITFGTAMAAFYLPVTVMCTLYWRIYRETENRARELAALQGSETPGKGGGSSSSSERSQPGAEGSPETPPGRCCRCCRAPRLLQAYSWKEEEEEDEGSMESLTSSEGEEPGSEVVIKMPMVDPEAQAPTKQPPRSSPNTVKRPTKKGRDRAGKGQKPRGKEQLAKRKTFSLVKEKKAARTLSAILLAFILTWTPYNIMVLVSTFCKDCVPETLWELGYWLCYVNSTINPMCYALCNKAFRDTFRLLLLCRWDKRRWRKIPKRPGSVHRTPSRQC
Description: as §3

## phytohemaglutinin [PHA]
BLEC Jurkat clones; clone J32-6D4
  Relative Beta-Lactamase Activity of the Clone by the Indicated Stimulus After 24 hours (% of maximum activated stimuli): 80%
BLEC Jurkat clones; clone J83 97-PPTR2 (repressed paradigm)
  Relative Beta-Lactamase Activity of the Clone by the Indicated Stimulus After 24 hours (% of maximum activated stimuli): 67%
BLEC Jurkat clones; clone J83-PI9
  Relative Beta-Lactamase Activity of the Clone by the Indicated Stimulus After 24 hours (% of maximum activated stimuli): 60%
BLEC Jurkat clones; clone J83-PTI8
  Relative Beta-Lactamase Activity of the Clone by the Indicated Stimulus After 24 hours (% of maximum activated stimuli): 60%
BLEC Jurkat clones; clone J389-PTI4
  Relative Beta-Lactamase Activity of the Clone by the Indicated Stimulus After 24 hours (% of maximum activated stimuli): 85%
[1]
  Relative Beta-Lactamase Activity of the Clone by the Indicated Stimulus After 24 hours (% of maximum activated stimuli): 30%
[2]; clone J83PI1
  Change in 460/530 ratio in the indicated clone by the following activator: 3-4
[2]; clone J83PI2
  Change in 460/530 ratio in the indicated clone by the following activator: 8
[2]; clone J83PI3
  Change in 460/530 ratio in the indicated clone by the following activator: 5-6
[2]; clone J83PI4
  Change in 460/530 ratio in the indicated clone by the following activator: 34
[2]; clone J83PI6
  Change in 460/530 ratio in the indicated clone by the following activator: 6-7
[2]; clone J83PI7
  Change in 460/530 ratio in the indicated clone by the following activator: 2
[2]; clone J83PI8
  Change in 460/530 ratio in the indicated clone by the following activator: 4-5
[2]; clone J83PI9
  Change in 460/530 ratio in the indicated clone by the following activator: 6
[2]; clone J83PI13
  Change in 460/530 ratio in the indicated clone by the following activator: 2-3
[2]; clone J83PI14
  Change in 460/530 ratio in the indicated clone by the following activator: 2
[2]; clone J83PI15
  Change in 460/530 ratio in the indicated clone by the following activator: 3-4
[2]; clone J83PI16
  Change in 460/530 ratio in the indicated clone by the following activator: 3-4
[2]; clone J83PI18
  Change in 460/530 ratio in the indicated clone by the following activator: 5-6
[2]; clone J83PI19
  Change in 460/530 ratio in the indicated clone by the following activator: 5-6
[2]; clone J97PI1
  Change in 460/530 ratio in the indicated clone by the following activator: 3-4
[2]; clone J97PI2
  Change in 460/530 ratio in the indicated clone by the following activator: 2-3
[2]; clone J97PI3
  Change in 460/530 ratio in the indicated clone by the following activator: 1-2
[2]; clone J97PI4
  Change in 460/530 ratio in the indicated clone by the following activator: 1-2
[2]; clone J97PI6
  Change in 460/530 ratio in the indicated clone by the following activator: 3-4
[2]; clone J97PI7
  Change in 460/530 ratio in the indicated clone by the following activator: 3-4
[2]; clone J97PI8
  Change in 460/530 ratio in the indicated clone by the following activator: 2.5-3
[2]; clone J97PI9
  Change in 460/530 ratio in the indicated clone by the following activator: 2-3
[2]; clone J97PI10
  Change in 460/530 ratio in the indicated clone by the following activator: 3-4
[2]; clone J97PI11
  Change in 460/530 ratio in the indicated clone by the following activator: 3-4
[2]; clone J97PI12
  Change in 460/530 ratio in the indicated clone by the following activator: 3-4
[2]; clone J97PI13
  Change in 460/530 ratio in the indicated clone by the following activator: 2-3
[2]; clone J97PI14
  Change in 460/530 ratio in the indicated clone by the following activator: 4-5
[2]; clone J97PI15
  Change in 460/530 ratio in the indicated clone by the following activator: 1-2
[2]; clone J97PI17
  Change in 460/530 ratio in the indicated clone by the following activator: 4-5
[2]; clone J97PI18
  Change in 460/530 ratio in the indicated clone by the following activator: 1-2
[2]; clone J97PI19
  Change in 460/530 ratio in the indicated clone by the following activator: 2-3
[2]; clone J97PI20
  Change in 460/530 ratio in the indicated clone by the following activator: 1-2
[2]; clone J97PI21
  Change in 460/530 ratio in the indicated clone by the following activator: 2-3
[2]; clone J97PI22
  Change in 460/530 ratio in the indicated clone by the following activator: 5-6
[2]; clone J97PI23
  Change in 460/530 ratio in the indicated clone by the following activator: 4-5
[2]; clone J97PI24
  Change in 460/530 ratio in the indicated clone by the following activator: 3-4
[2]; clone J97PI116
  Change in 460/530 ratio in the indicated clone by the following activator: 2-3
[2]; clone J325B5
  Change in 460/530 ratio in the indicated clone by the following activator: 7
[2]; clone J325B11
  Change in 460/530 ratio in the indicated clone by the following activator: 9
[2]; clone J325E1
  Change in 460/530 ratio in the indicated clone by the following activator: 8
[2]; clone J325E3
  Change in 460/530 ratio in the indicated clone by the following activator: 7
[2]; clone J325E6
  Change in 460/530 ratio in the indicated clone by the following activator: 11
[2]; clone J325G4
  Change in 460/530 ratio in the indicated clone by the following activator: 3-4
[2]; clone J326C9
  Change in 460/530 ratio in the indicated clone by the following activator: 4-5
[2]; clone J326D4
  Change in 460/530 ratio in the indicated clone by the following activator: 10
[2]; clone J326D7
  Change in 460/530 ratio in the indicated clone by the following activator: 10
[2]; clone J326F7
  Change in 460/530 ratio in the indicated clone by the following activator: 10
[2]; clone J326H4
  Change in 460/530 ratio in the indicated clone by the following activator: 10
[2]; clone J389PM2
  Change in 460/530 ratio in the indicated clone by the following activator: 4-5
[2]; clone J389PM3
  Change in 460/530 ratio in the indicated clone by the following activator: 3
[2]; clone J389PM5
  Change in 460/530 ratio in the indicated clone by the following activator: 4-5
[2]; clone J389PM7
  Change in 460/530 ratio in the indicated clone by the following activator: 1-2
[2]; clone J389PM8
  Change in 460/530 ratio in the indicated clone by the following activator: 2-3
[2]; clone J389PT4
  Change in 460/530 ratio in the indicated clone by the following activator: 15
[2]; clone J389PTt
  Change in 460/530 ratio in the indicated clone by the following activator: 5-6
[2]; clone J389TI1
  Change in 460/530 ratio in the indicated clone by the following activator: 1-2
[2]; clone J389TI4
  Change in 460/530 ratio in the indicated clone by the following activator: 0
J389PT14/pcDNA3
  Relative expression of beta-lactamase in cells exposed to the indicated stimuli: 12
M1 receptor
  Relative expression of beta-lactamase in cells exposed to the indicated stimuli: 13
